Source: patent publication US9051310B2, “Nicotinamide derivative or salt thereof” (FUJIFILM Corporation, priority 2011, dated 2015)

molecular target: T1, glutathione S-transferase (GST)-linked full-length human Syk protein (Homo sapiens, UniProt P43405); experiment: Syk enzyme assay; assay type: biochemical; settings: 0.83 nM Syk, time-resolved fluorescence; read-out: IC50 of Syk-inhibitory activity
T1 construct: glutathione S-transferase (GST)-linked full-length human Syk protein; purchased Carna Biosciences; host or cells: Baculovirus expression system
In short: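 Phosphotyrosine on a biotin-peptide substrate (0.5 μM) was read by time-resolved fluorescence at 615 and 665 nm with Eu-anti-pTyr antibody and APC-streptavidin after 1 h EDTA stop.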

| Structure (SMILES) | IC50 |
| --- | --- |
| CC[C@@H](Nc1nc(Nc2cnc(N3CCOCC3)c(F)c2)c(C(N)=O)cc1F)[C@H](C)N [Example 2-259, 6-(((2S,3R)-2-aminopentan-3-yl)amino)-5-fluoro-2-((5-fluoro-6-morpholinopyridin-3-yl)amino)nicotinamide] | 50 to 100 nM |
| CCC[C@@H](Nc1nc(Nc2cnc(N3CCOCC3)c(F)c2)c(C(N)=O)cc1F)[C@H](C)N [Example 2-260, 6-(((2S,3R)-2-aminohexan-3-yl)amino)-5-fluoro-2-((5-fluoro-6-morpholinopyridin-3-yl)amino)nicotinamide] | 10 to 50 nM |
| CC(C)C[C@H](CN)Nc1nc(Nc2cnc(N3CCOCC3)c(F)c2)c(C(N)=O)cc1F [Example 2-261, (R)-6-((1-amino-4-methylpentan-2-yl)amino)-5-fluoro-2-((5-fluoro-6-morpholinopyridin-3-yl)amino)nicotinamide] | 10 to 50 nM |
| CCCC[C@@H](Nc1nc(Nc2cnc(N3CCOCC3)c(F)c2)c(C(N)=O)cc1F)[C@H](C)N [Example 2-262, 6-(((2S,3R)-2-aminoheptan-3-yl)amino)-5-fluoro-2-((5-fluoro-6-morpholinopyridin-3-yl)amino)nicotinamide] | 10 to 50 nM |
| CCn1ncc2cc(Nc3nc(N[C@H](C4CCCCC4)[C@H](C)N)c(F)cc3C(N)=O)ccc21 [Example 2-264, 6-(((1R,2S)-2-amino-1-cyclohexylpropyl)amino)-2-((1-ethyl-1H-indazol-5-yl)amino)-5-fluoronicotinamide] | 10 to 50 nM |
| CC[C@@H](Nc1nc(Nc2cnc(NC)c(F)c2)c(C(N)=O)cc1F)[C@H](C)N [Example 2-276, 6-(((2S,3R)-2-aminopentan-3-yl)amino)-5-fluoro-2-((5-fluoro-6-(methylamino)pyridin-3-yl)amino)nicotinamide] | 10 to 50 nM |
| CCC[C@@H](Nc1nc(Nc2cnc(NC)c(F)c2)c(C(N)=O)cc1F)[C@H](C)N [Example 2-277, 6-(((2S,3R)-2-aminohexan-3-yl)amino)-5-fluoro-2-((5-fluoro-6-(methylamino)pyridin-3-yl)amino)nicotinamide] | 10 to 50 nM |
| CNc1ncc(Nc2nc(N[C@H](CC(C)C)[C@H](C)N)c(F)cc2C(N)=O)cc1F [Example 2-278, 6-(((2S,3R)-2-amino-5-methylhexan-3-yl)amino)-5-fluoro-2-((5-fluoro-6-(methylamino)pyridin-3-yl)amino)nicotinamide] | 10 to 50 nM |
| CC[C@H](N)[C@@H](C)Nc1nc(Nc2cnc(OC)c(-n3nccn3)c2)c(C(N)=O)cc1F [Example 2-279, 6-(((2R,3S)-3-aminopentan-2-yl)amino)-5-fluoro-2-((6-methoxy-5-(2H-1,2,3-triazol-2-yl)pyridin-3-yl)amino)nicotinamide] | 10 to 50 nM |
| CN(C)c1nn(C)c2ncc(Nc3nc(N[C@@H]4CCCC[C@@H]4N)c(F)cc3C(N)=O)cc12 [Example 2-286, 6-(((1R,2S)-2-aminocyclohexyl)amino)-2-((3-(dimethylamino)-1-methyl-1H-pyrazolo[3,4-b]pyridin-5-yl)amino)-5-fluoronicotinamide] | 10 to 50 nM |
| CC(C)C[C@H](CN)Nc1nc(Nc2cnc3c(c2)c(N(C)C)nn3C)c(C(N)=O)cc1F [Example 2-287, (R)-6-((1-amino-4-methylpentan-2-yl)amino)-2-((3-(dimethylamino)-1-methyl-1H-pyrazolo[3,4-b]pyridin-5-yl)amino)-5-fluoronicotinamide] | 10 to 50 nM |
| CC[C@@H](Nc1nc(Nc2cnc3c(c2)c(N(C)C)nn3C)c(C(N)=O)cc1F)[C@H](C)N [Example 2-288, 6-(((2S,3R)-2-aminopentan-3-yl)amino)-2-((3-(dimethylamino)-1-methyl-1H-pyrazolo[3,4-b]pyridin-5-yl)amino)-5-fluoronicotinamide] | 10 to 50 nM |
| CCC[C@@H](Nc1nc(Nc2cnc3c(c2)c(N(C)C)nn3C)c(C(N)=O)cc1F)[C@H](C)N [Example 2-289, 6-(((2S,3R)-2-aminohexan-3-yl)amino)-2-((3-(dimethylamino)-1-methyl-1H-pyrazolo[3,4-b]pyridin-5-yl)amino)-5-fluoronicotinamide] | < 10 nM |
| C[C@H](N)[C@H](Nc1nc(Nc2cnc3c(c2)c(N(C)C)nn3C)c(C(N)=O)cc1F)C1CC1 [Example 2-290, 6-(((1R,2S)-2-amino-1-cyclopropylpropyl)amino)-2-((3-(dimethylamino)-1-methyl-1H-pyrazolo[3,4-b]pyridin-5-yl)amino)-5-fluoronicotinamide] | 10 to 50 nM |
| C[C@H](N)[C@H](Nc1nc(Nc2cnc3c(c2)c(N(C)C)nn3C)c(C(N)=O)cc1F)C1CCC1 [Example 2-293, 6-(((1R,2S)-2-amino-1-cyclobutylpropyl)amino)-2-((3-(dimethylamino)-1-methyl-1H-pyrazolo[3,4-b]pyridin-5-yl)amino)-5-fluoronicotinamide] | < 10 nM |
| Cc1nn(CC(F)F)c2ccc(Nc3nc(N[C@H](C)[C@@H](N)C4CC4)c(F)cc3C(N)=O)cc12 [Example 2-300, 6-(((1S,2R)-1-amino-1-cyclopropylpropan-2-yl)amino)-2-((1-(2,2-difluoroethyl)-3-methyl-1H-indazol-5-yl)amino)-5-fluoronicotinamide] | 10 to 50 nM |

| Structure (SMILES) | IC50 |
| --- | --- |
| C[C@@H](Nc1nc(Nc2ccc3c(c2)c(N(C)C)nn3C)c(C(N)=O)cc1F)[C@@H](N)C1CC1 [Example 2-301, 6-(((1S,2R)-1-amino-1-cyclopropylpropan-2-yl)amino)-2-((3-(dimethylamino)-1-methyl-1H-indazol-5-yl)amino)-5-fluoronicotinamide] | 50 to 100 nM |
| COCCn1ncc2c(Nc3nc(N[C@@H](CN)CC(C)C)c(F)cc3C(N)=O)cccc21 [Example 2-303, (R)-6-((1-amino-4-methylpentan-2-yl)amino)-5-fluoro-2-((1-(2-methoxyethyl)-1H-indazol-4-yl)amino)nicotinamide] | < 10 nM |
| CC[C@@H](Nc1nc(Nc2cccc3c2cnn3CCOC)c(C(N)=O)cc1F)[C@H](C)N [Example 2-304, 6-(((2S,3R)-2-aminopentan-3-yl)amino)-5-fluoro-2-((1-(2-methoxyethyl)-1H-indazol-4-yl)amino)nicotinamide] | < 10 nM |
| CCCC[C@@H](Nc1nc(Nc2cccc3c2cnn3CCOC)c(C(N)=O)cc1F)[C@H](C)N [Example 2-307, 6-(((2S,3R)-2-aminoheptan-3-yl)amino)-5-fluoro-2-((1-(2-methoxyethyl)-1H-indazol-4-yl)amino)nicotinamide] | < 10 nM |
| COCCn1ncc2c(Nc3nc(N[C@H](CC(C)C)[C@H](C)N)c(F)cc3C(N)=O)cccc21 [Example 2-308, 6-(((2S,3R)-2-amino-5-methylhexan-3-yl)amino)-5-fluoro-2-((1-(2-methoxyethyl)-1H-indazol-4-yl)amino)nicotinamide] | < 10 nM |
| COCCn1ncc2c(Nc3nc(N[C@H](COC)[C@H](C)N)c(F)cc3C(N)=O)cccc21 [Example 2-309, 6-(((2S,3S)-3-amino-1-methoxybutan-2-yl)amino)-5-fluoro-2-((1-(2-methoxyethyl)-1H-indazol-4-yl)amino)nicotinamide] | 10 to 50 nM |
| CCOC[C@@H](Nc1nc(Nc2cccc3c2cnn3CCOC)c(C(N)=O)cc1F)[C@H](C)N [Example 2-310, 6-(((2S,3S)-3-amino-1-ethoxybutan-2-yl)amino)-5-fluoro-2-((1-(2-methoxyethyl)-1H-indazol-4-yl)amino)nicotinamide] | 50 to 100 nM |
| C[C@H](N)[C@H](Nc1nc(Nc2cnc(N3CCOCC3)c(F)c2)c(C(N)=O)cc1F)c1ccccc1 [Example 2-314, 6-(((1R,2S)-2-amino-1-phenylpropyl)amino)-5-fluoro-2-((5-fluoro-6-morpholinopyridin-3-yl)amino)nicotinamide] | < 10 nM |
| C[C@H](N)[C@H](Nc1nc(Nc2ccc3c(c2)c(N(C)C)nn3C)c(C(N)=O)cc1F)c1ccccc1 [Example 2-315, 6-(((1R,2S)-2-amino-1-phenylpropyl)amino)-2-((3-(dimethylamino)-1-methyl-1H-indazol-5-yl)amino)-5-fluoronicotinamide] | 10 to 50 nM |
| Cc1nn(C)c2ncc(Nc3nc(N[C@@H]4CCOC[C@@H]4N)c(F)cc3C(N)=O)cc12 [Example 2-333, 6-(((3R,4R)-3-aminotetrahydro-2H-pyran-4-yl)amino)-2-((1,3-dimethyl-1H-pyrazolo[3,4-b]pyridin-5-yl)amino)-5-fluoronicotinamide] | 10 to 50 nM |
| CN(C)c1nn(C)c2ncc(Nc3nc(N[C@@H]4CCOC[C@@H]4N)c(F)cc3C(N)=O)cc12 [Example 2-335, 6-(((3R,4R)-3-aminotetrahydro-2H-pyran-4-yl)amino)-2-((3-(dimethylamino)-1-methyl-1H-pyrazolo[3,4-b]pyridin-5-yl)amino)-5-fluoronicotinamide] | 10 to 50 nM |
| COc1ncc(Nc2nc(N[C@H](c3ccccc3)[C@H](C)N)c(F)cc2C(N)=O)cc1-n1ccnn1 [Example 2-336, 6-(((1R,2S)-2-amino-1-phenylpropyl)amino)-5-fluoro-2-((6-methoxy-5-(1H-1,2,3-triazol-1-yl)pyridin-3-yl)amino)nicotinamide] | < 10 nM |
| COc1ccc([C@@H](Nc2nc(Nc3ccc4ncccc4c3)c(C(N)=O)cc2F)[C@H](C)N)cc1 [Example 2-337, 6-(((1R,2S)-2-amino-1-(4-methoxyphenyl)propyl)amino)-5-fluoro-2-(quinolin-6-ylamino)nicotinamide] | 50 to 100 nM |
| COc1ccc([C@@H](Nc2nc(Nc3cnc(OC)c(-n4ccnn4)c3)c(C(N)=O)cc2F)[C@H](C)N)cc1 [Example 2-339, 6-(((1R,2S)-2-amino-1-(4-methoxyphenyl)propyl)amino)-5-fluoro-2-((6-methoxy-5-(1H-1,2,3-triazol-1-yl)pyridin-3-yl)amino)nicotinamide] | 50 to 100 nM |
| CCn1ncc2cc(Nc3nc(N[C@H](c4ccc(OC)cc4)[C@H](C)N)c(F)cc3C(N)=O)ccc21 [Example 2-341, 6-(((1R,2S)-2-amino-1-(4-methoxyphenyl)propyl)amino)-2-((1-ethyl-1H-indazol-5-yl)amino)-5-fluoronicotinamide] | < 10 nM |
